Each molecule was assayed on Leishmania donovani (assay: Antileishmanial activity against Leishmania donovani promastigotes). Conditions: read-out: LD50 (the source's name).
Assay type: functional

SMILES	LC50
CCC1=C(C)C2=Cc3c(C)c(CCCCCCCCCCCOP(=O)([O-])OCC[N+](C)(C)C)c(C)n3[B-](F)(F)[N+]2=C1C	4.3 µM
CC1=CC(C)=[N+]2C1=Cc1c(C)c(CCCCCCCCCCCOP(=O)([O-])OCC[N+](C)(C)C)c(C)n1[B-]2(F)F	5.2 µM
CCCCCCCCCCCCCCCCOP(=O)([O-])OCC[N+](C)(C)C [MILTEFOSINE]	6.5 µM
